Test results: article PMC6378277, “Mechanism Underlying Heat Stability of the Rice Endosperm Cytosolic ADP-Glucose Pyrophosphorylase” (Frontiers in Plant Science, 2019)
Numbering of substitutions follows the chain as printed.

Tests used:
[1] = target: T1, rice AGPase L2/S2b (wild type; parent of L2/S2b^QTC and PQ6) (Oryza sativa, UniProt B7EVB8+Q7G065, B7EVB8:N38Q/B7EVB8:K39T/B7EVB8:N40C); details: read-out: A0.5; allosteric activator; ATP and Glc1P, 10 mM MgCl2, pH 8.0, room temperature; enzyme reduced with 10 mM DTT
T1 construct: gene AGPL2
T1 sequence (Q7G065 1-518): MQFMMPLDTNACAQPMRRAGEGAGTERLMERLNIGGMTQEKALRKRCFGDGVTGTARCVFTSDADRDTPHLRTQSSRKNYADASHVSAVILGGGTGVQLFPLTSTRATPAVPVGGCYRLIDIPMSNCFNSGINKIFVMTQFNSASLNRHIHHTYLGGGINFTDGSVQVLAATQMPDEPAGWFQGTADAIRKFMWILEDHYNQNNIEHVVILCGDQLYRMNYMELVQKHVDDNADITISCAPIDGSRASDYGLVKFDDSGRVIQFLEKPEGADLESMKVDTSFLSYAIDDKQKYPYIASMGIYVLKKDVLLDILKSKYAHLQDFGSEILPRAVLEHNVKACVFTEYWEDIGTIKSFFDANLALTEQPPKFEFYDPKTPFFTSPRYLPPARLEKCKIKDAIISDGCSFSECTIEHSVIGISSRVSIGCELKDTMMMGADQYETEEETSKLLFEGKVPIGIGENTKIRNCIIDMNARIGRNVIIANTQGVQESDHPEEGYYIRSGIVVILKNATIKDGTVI
T1 sequence (B7EVB8 1-479 N38Q/K39T/N40C): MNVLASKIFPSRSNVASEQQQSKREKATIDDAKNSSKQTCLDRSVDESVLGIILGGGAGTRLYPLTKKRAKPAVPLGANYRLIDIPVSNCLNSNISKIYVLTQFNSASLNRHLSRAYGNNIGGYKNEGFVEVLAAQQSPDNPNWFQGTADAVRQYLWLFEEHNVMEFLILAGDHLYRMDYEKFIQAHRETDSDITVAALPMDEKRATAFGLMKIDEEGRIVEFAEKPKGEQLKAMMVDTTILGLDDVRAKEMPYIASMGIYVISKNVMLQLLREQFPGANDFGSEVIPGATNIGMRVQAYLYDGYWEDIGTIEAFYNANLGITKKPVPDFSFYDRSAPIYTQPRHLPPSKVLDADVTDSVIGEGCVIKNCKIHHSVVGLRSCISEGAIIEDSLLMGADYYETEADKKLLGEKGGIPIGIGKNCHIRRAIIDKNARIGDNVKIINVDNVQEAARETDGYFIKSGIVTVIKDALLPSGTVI
Text: (§1) AGPase activity, phosphate release (PAMb colorimetric), Hill fit on rice AGPase L2/S2b (wild type; parent of L2/S2b^QTC and PQ6)

[2] = target: T2, rice AGPase L2/S2b (wild type; parent of L2/S2b^QTC and PQ6) (Oryza sativa, UniProt B7EVB8+Q7G065, B7EVB8:N38Q/B7EVB8:K39T/B7EVB8:N40C/B7EVB8:L379F); details: read-out: A0.5; allosteric activator; ATP and Glc1P, 10 mM MgCl2, pH 8.0, room temperature; enzyme reduced with 10 mM DTT
T2 construct: gene AGPL2
T2 sequence (Q7G065 1-518): T1 sequence (Q7G065 1-518)
T2 sequence (B7EVB8 1-479 N38Q/K39T/N40C/L379F): T1 sequence (B7EVB8 1-479 N38Q/K39T/N40C) with L379F
Text: as §1

[3] = target: T3, rice AGPase L2/S2b (wild type; parent of L2/S2b^QTC and PQ6) (Oryza sativa, UniProt B7EVB8+Q7G065); details: read-out: A0.5; allosteric activator; ADP-glucose synthesis with ATP and Glc1P, 10 mM MgCl2, pH 8.0, room temperature; enzyme reduced with 10 mM DTT
T3 construct: gene AGPL2
T3 sequence (Q7G065 1-518): T1 sequence (Q7G065 1-518)
T3 sequence (B7EVB8 1-479): T1 sequence (B7EVB8 1-479 N38Q/K39T/N40C) with Q38N, T39K, C40N
Text: as §1

[4] = target: T4, hybrid L2/pSS (Oryza sativa; Solanum tuberosum, UniProt P23509+Q7G065); experiment: AGPase activity, phosphate release (PAMb colorimetric), Hill fit; format: biochemical; details: allosteric activator; ATP and Glc1P, 10 mM MgCl2, pH 8.0, room temperature; enzyme reduced with 10 mM DTT; read-out: A0.5
T4 construct: hybrid heterotetramer of whole rice L2 and whole potato SS, E. coli EA345, purified
T4 sequence (P23509 73-521): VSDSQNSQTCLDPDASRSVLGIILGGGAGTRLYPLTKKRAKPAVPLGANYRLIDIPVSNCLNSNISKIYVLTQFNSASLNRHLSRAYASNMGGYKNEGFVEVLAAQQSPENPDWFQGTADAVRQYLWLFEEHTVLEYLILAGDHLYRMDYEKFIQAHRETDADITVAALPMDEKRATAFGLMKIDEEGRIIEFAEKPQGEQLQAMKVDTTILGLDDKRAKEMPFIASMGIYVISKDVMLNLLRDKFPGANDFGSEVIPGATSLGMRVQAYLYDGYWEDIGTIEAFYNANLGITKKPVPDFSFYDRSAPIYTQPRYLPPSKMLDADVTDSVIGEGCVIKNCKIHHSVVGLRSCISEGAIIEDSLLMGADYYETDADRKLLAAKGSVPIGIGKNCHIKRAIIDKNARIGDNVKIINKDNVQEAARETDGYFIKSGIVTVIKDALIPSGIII
T4 sequence (Q7G065 1-518): T1 sequence (Q7G065 1-518)
Text: AGPase activity, phosphate release (PAMb colorimetric), Hill fit on hybrid L2/pSS

O=C(O)[C@H](O)COP(=O)(O)O [3-PGA]
EC50 [1]: 95 ± 2 µM
EC50 [2]: 106 µM
EC50 [3]: 342 ± 30 µM
EC50 [4]: 147 ± 3 µM
